According to patent US10781211B2, “Spirocycle compounds and methods of making and using same” (Lundbeck La Jolla Research Center, Inc., priority 2016, dated 2020):

How the values were obtained:
[1] = target: FAAH (Mus musculus (Mouse), UniProt O08914); assay: Mouse brain proteomes from inhibitor treated mice (oral gavage, sacrifice 4 h after administration, ABPP analysis), FAAH; type: in vivo; conditions: 5 mg/kg oral gavage
Procedure: (§1) Preparation of Mouse Brain Proteomes from Inhibitor Treated Mice.
(§2) Inhibitors were administered to wild-type C57Bl/6J by oral gavage in a vehicle, e.g. PEG400/Ethanol/PBS (7/2/1). Each animal was sacrificed 4 h following administration and brain proteomes were prepared and analyzed according to previously established methods (See Niphakis, M. J., et al. (2011) ACS Chem. Neurosci. and Long, J. Z., et al. Nat. Chem. Biol. 5:37-44). Data from this assay is shown in Table 2 (% inhibition at 5 mg/kg).

[2] = target: ABHD6 (Mus musculus (Mouse), UniProt Q8R2Y0); assay: Mouse brain proteomes from inhibitor treated mice (oral gavage, sacrifice 4 h after administration, ABPP analysis), ABHD6; type: in vivo; conditions: 5 mg/kg oral gavage
ABHD6, sequence (Q8R2Y0 whole entry): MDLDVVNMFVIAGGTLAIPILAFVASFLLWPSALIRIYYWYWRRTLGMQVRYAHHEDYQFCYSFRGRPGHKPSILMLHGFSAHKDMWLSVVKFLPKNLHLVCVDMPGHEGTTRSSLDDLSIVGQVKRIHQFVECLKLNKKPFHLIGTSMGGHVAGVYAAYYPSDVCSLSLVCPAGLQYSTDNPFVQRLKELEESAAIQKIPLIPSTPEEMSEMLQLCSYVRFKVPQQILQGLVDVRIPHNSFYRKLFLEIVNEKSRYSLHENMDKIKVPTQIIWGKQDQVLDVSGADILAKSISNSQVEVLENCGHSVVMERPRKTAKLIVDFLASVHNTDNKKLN
Procedure: as §1, §2

FAAH, sequence (O08914 whole entry): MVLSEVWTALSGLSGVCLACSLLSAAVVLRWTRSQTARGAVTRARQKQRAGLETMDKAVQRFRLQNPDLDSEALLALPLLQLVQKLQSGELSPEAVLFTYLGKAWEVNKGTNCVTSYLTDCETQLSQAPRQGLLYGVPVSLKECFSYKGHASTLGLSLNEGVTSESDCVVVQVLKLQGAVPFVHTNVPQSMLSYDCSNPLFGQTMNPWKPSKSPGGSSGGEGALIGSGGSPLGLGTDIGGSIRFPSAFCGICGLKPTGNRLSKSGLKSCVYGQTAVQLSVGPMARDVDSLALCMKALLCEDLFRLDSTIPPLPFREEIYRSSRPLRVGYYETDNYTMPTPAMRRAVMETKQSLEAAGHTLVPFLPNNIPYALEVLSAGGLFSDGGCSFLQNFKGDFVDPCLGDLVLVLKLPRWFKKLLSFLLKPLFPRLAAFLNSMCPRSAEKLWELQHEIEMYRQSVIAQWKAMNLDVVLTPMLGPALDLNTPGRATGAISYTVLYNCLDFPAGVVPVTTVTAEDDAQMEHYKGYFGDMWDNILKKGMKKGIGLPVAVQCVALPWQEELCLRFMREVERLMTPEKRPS

FAAH % Inh 5 mg/kg (mouse) [1]	ABHD6 % Inh 5 mg/kg (mouse) [2]	Compound
# (# is < 25%)	# (# is < 25%)	O=C(OC(C(F)(F)F)C(F)(F)F)N1CCC2(CCN(Cc3ccc(Cl)cc3N3CCCC3)C2)CC1 [Example 17, 1,1,1,3,3,3-Hexafluoropropan-2-yl 2-(4-chloro-2-(pyrrolidin-1-yl)benzyl)-2,8-diazaspiro[4.5]decane-8-carboxylate]
# (# is < 25%)	# (# is < 25%)	O=C(OC(C(F)(F)F)C(F)(F)F)N1CCC2(CCN(Cc3ccc(C(F)(F)F)cc3N3CCCCC3)C2)CC1 [Example 23, 1,1,1,3,3,3-Hexafluoropropan-2-yl 2-(2-(piperidin-1-yl)-4-(trifluoromethyl)benzyl)-2,8-diazaspiro[4.5]decane-8-carboxylate]
# (# is < 25%)	# (# is < 25%)	O=C(OC(C(F)(F)F)C(F)(F)F)N1CCC2(CCN(Cc3ccc(Cl)cc3N3CC4COCC4C3)C2)CC1 (stereo not shown) [Example 25, 1,1,1,3,3,3-Hexafluoropropan-2-yl 2-(4-chloro-2-(tetrahydro-1H-furo[3,4-c]pyrrol-5(3H)-yl)benzyl)-2,8-diazaspiro[4.5]decane-8-carboxylate]
# (# is < 25%)	# (# is < 25%)	O=C(OC(C(F)(F)F)C(F)(F)F)N1CCC2(CCN(Cc3ccc(C(F)(F)F)cc3N3CC4COCC4C3)C2)CC1 (stereo not shown) [Example 26, 1,1,1,3,3,3-Hexafluoropropan-2-yl 2-(2-(tetrahydro-1H-furo[3,4-c]pyrrol-5(3H)-yl)-4-(trifluoromethyl)benzyl)-2,8-diazaspiro[4.5]decane-8-carboxylate]
# (# is < 25%)	# (# is < 25%)	O=C(OC(C(F)(F)F)C(F)(F)F)N1CCC2(CCCN2Cc2cc(N3CCC(F)CC3)cc(C(F)(F)F)c2)CC1 [Example 45, 1,1,1,3,3,3-Hexafluoropropan-2-yl 1-(3-(4-fluoropiperidin-1-yl)-5-(trifluoromethyl)benzyl)-1,8-diazaspiro[4.5]decane-8-carboxylate]
# (# is < 25%)	# (# is < 25%)	CC1(C)CC2(CCN(C(=O)OC(C(F)(F)F)C(F)(F)F)CC2)CN1Cc1ccc(Cl)cc1N1CCOCC1 [Example 50, 1,1,1,3,3,3-Hexafluoropropan-2-yl 2-(4-chloro-2-morpholinobenzyl)-3,3-dimethyl-2,8-diazaspiro[4.5]decane-8-carboxylate]
# (# is < 25%)	# (# is < 25%)	CC1(C)CC2(CCN(C(=O)OC(C(F)(F)F)C(F)(F)F)CC2)CN1Cc1cccc(Cl)c1N1CCOCC1 [Example 54, 1,1,1,3,3,3-Hexafluoropropan-2-yl 2-(3-chloro-2-morpholinobenzyl)-3,3-dimethyl-2,8-diazaspiro[4.5]decane-8-carboxylate]
# (# is < 25%)	# (# is < 25%)	O=C(OC(C(F)(F)F)C(F)(F)F)N1CCC2(CCN(Cc3cccc(Cl)c3N3CCC(F)(F)CC3)C2)CC1 [Example 64, 1,1,1,3,3,3-Hexafluoropropan-2-yl 2-(3-chloro-2-(4,4-difluoropiperidin-1-yl)benzyl)-2,8-diazaspiro[4.5]decane-8-carboxylate]
# (# is < 25%)		O=C(OC(C(F)(F)F)C(F)(F)F)N1CCC2(CCN(Cc3cccc(Cl)c3N3CCC(F)CC3)C2)CC1 [Example 65, 1,1,1,3,3,3-Hexafluoropropan-2-yl 2-(3-chloro-2-(4-fluoropiperidin-1-yl)benzyl)-2,8-diazaspiro[4.5]decane-8-carboxylate]
# (# is < 25%)	# (# is < 25%)	O=C(OC(C(F)(F)F)C(F)(F)F)N1CCC2(CCN(Cc3ccc(C(F)(F)F)cc3N3CCCC3)C2)CC1 [Example 72, 1,1,1,3,3,3-Hexafluoropropan-2-yl 2-(2-(pyrrolidin-1-yl)-4-(trifluoromethyl)benzyl)-2,8-diazaspiro[4.5]decane-8-carboxylate]
# (# is < 25%)	# (# is < 25%)	O=C(OC(C(F)(F)F)C(F)(F)F)N1CCC2(CCCN2Cc2ccc(Cl)cc2N2CCCCC2)CC1 [Example 74, 1,1,1,3,3,3-Hexafluoropropan-2-yl 1-(4-chloro-2-(piperidin-1-yl)benzyl)-1,8-diazaspiro[4.5]decane-8-carboxylate]
# (# is < 25%)	# (# is < 25%)	CC(=O)NC1CCN(c2cc(Cl)ccc2CN2CCCC23CCN(C(=O)OC(C(F)(F)F)C(F)(F)F)CC3)CC1 [Example 104, 1,1,1,3,3,3-Hexafluoropropan-2-yl 1-(2-(4-acetamidopiperidin-1-yl)-4-chlorobenzyl)-1,8-diazaspiro[4.5]decane-8-carboxylate]

More lines, now with the values behind:

Compound	FAAH % Inh 5 mg/kg (mouse) [1]	ABHD6 % Inh 5 mg/kg (mouse) [2]
O=C(OC(C(F)(F)F)C(F)(F)F)N1CCC2(CCCN2Cc2ccc(Cl)cc2N2CCN(CCF)CC2)CC1 [Example 19, 1,1,1,3,3,3-Hexafluoropropan-2-yl 1-(4-chloro-2-(4-(2-fluoroethyl)piperazin-1-yl)benzyl)-1,8-diazaspiro[4.5]decane-8-carboxylate]	# (# is < 25%)	# (# is < 25%)
O=C(OC(C(F)(F)F)C(F)(F)F)N1CCC2(CCCN2Cc2ccc(C(F)(F)F)cc2N2CCN(CCF)CC2)CC1 [Example 20, 1,1,1,3,3,3-Hexafluoropropan-2-yl 1-(2-(4-(2-fluoroethyl)piperazin-1-yl)-4-(trifluoromethyl)benzyl)-1,8-diazaspiro[4.5]decane-8-carboxylate]	# (# is < 25%)	# (# is < 25%)
CS(=O)(=O)N1CCN(c2cc(CN3CCCC34CCN(C(=O)OC(C(F)(F)F)C(F)(F)F)CC4)cc(C(F)(F)F)c2)CC1 [Example 43, 1,1,1,3,3,3-Hexafluoropropan-2-yl 1-(3-(4-(methylsulfonyl)piperazin-1-yl)-5-(trifluoromethyl)benzyl)-1,8-diazaspiro[4.5]decane-8-carboxylate]	# (# is < 25%)	# (# is < 25%)
CC1(C)CC2(CCN(C(=O)OC(C(F)(F)F)C(F)(F)F)CC2)CN1Cc1ccc(C(F)(F)F)cc1N1CCOCC1 [Example 51, 1,1,1,3,3,3-Hexafluoropropan-2-yl 3,3-dimethyl-2-(2-morpholino-4-(trifluoromethyl)benzyl)-2,8-diazaspiro[4.5]decane-8-carboxylate]	# (# is < 25%)	# (# is < 25%)
O=C(OC(C(F)(F)F)C(F)(F)F)N1CCC2(CCCN2Cc2ccc(C(F)(F)F)cc2N2CCCC2)CC1 [Example 66, 1,1,1,3,3,3-Hexafluoropropan-2-yl 1-(2-(pyrrolidin-1-yl)-4-(trifluoromethyl)benzyl)-1,8-diazaspiro[4.5]decane-8-carboxylate]	# (# is < 25%)	# (# is < 25%)
O=C(OC(C(F)(F)F)C(F)(F)F)N1CCC2(CCCN2Cc2ccc(C(F)(F)F)cc2N2CC3CCC(C2)O3)CC1 [Example 73, 1,1,1,3,3,3-Hexafluoropropan-2-yl 1-(2-(8-oxa-3-azabicyclo[3.2.1]octan-3-yl)-4-(trifluoromethyl)benzyl)-1,8-diazaspiro[4.5]decane-8-carboxylate]	# (# is < 25%)	# (# is < 25%)
O=C(OC(C(F)(F)F)C(F)(F)F)N1CCC2(CCCN2Cc2ccc(C(F)(F)F)cc2N2CCCCC2)CC1 [Example 78, 1,1,1,3,3,3-Hexafluoropropan-2-yl 1-(2-(piperidin-1-yl)-4-(trifluoromethyl)benzyl)-1,8-diazaspiro[4.5]decane-8-carboxylate]	# (# is < 25%)	# (# is < 25%)
CCN1CCN(c2cc(C(F)(F)F)ccc2CN2CCCC23CCN(C(=O)OC(C(F)(F)F)C(F)(F)F)CC3)CC1 [Example 87, 1,1,1,3,3,3-Hexafluoropropan-2-yl 1-(2-(4-ethylpiperazin-1-yl)-4-(trifluoromethyl)benzyl)-1,8-diazaspiro[4.5]decane-8-carboxylate]	# (# is < 25%)	# (# is < 25%)
CC(=O)N1CCN(c2cc(C(F)(F)F)ccc2CN2CCCC23CCN(C(=O)OC(C(F)(F)F)C(F)(F)F)CC3)CC1 [Example 88, 1,1,1,3,3,3-Hexafluoropropan-2-yl 1-(2-(4-acetylpiperazin-1-yl)-4-(trifluoromethyl)benzyl)-1,8-diazaspiro[4.5]decane-8-carboxylate]	# (# is < 25%)	# (# is < 25%)
O=C(OC(C(F)(F)F)C(F)(F)F)N1CCC2(CCCN2Cc2ccc(C(F)(F)F)cc2N2CCC(F)(F)CC2)CC1 [Example 90, 1,1,1,3,3,3-Hexafluoropropan-2-yl 1-(2-(4,4-difluoropiperidin-1-yl)-4-(trifluoromethyl)benzyl)-1,8-diazaspiro[4.5]decane-8-carboxylate]	# (# is < 25%)	# (# is < 25%)
O=C(COc1cc(CN2CCCC23CCN(C(=O)OC(C(F)(F)F)C(F)(F)F)CC3)cc(C(F)(F)F)c1)N1CCCC1 [Example 168, 1,1,1,3,3,3-Hexafluoropropan-2-yl 1-(3-(2-oxo-2-(pyrrolidin-1-yl)ethoxy)-5-(trifluoromethyl)benzyl)-1,8-diazaspiro[4.5]decane-8-carboxylate]	# (# is < 25%)	# (# is < 25%)
CS(=O)(=O)C1CN(c2cc(C(F)(F)F)ccc2CN2CCCC23CCN(C(=O)OC(C(F)(F)F)C(F)(F)F)CC3)C1 [Example 268]	# (# is < 25%)	
